Laboratory results from patent US20150045358A1, “PHARMACEUTICAL COMPOSITION FOR TREATING DISORDERS ASSOCIATED WITH INSULIN RESISTANCE” (National Central University, priority 2012, published 2015).
Entries after “also recorded” stand apart in the source; their conditions may differ.

Assays:
[1] = tested on: JNKs; test: JNKs phosphorylation in differentiated 3T3-L1 adipocytes (Western blotting); type: cell-based; conditions: for basal level of phosphorylation of JNKs: inhibitor 1 μM alone, absence of ET-1; for ET-1-stimulated phosphorylation of JNKs: inhibitor 1 μM pretreated 1 hour, then 100 nM ET-1 for 5 or 15 minutes
Procedure: (§1) Referring to FIGS. 2A, 2B, 2C, 2D, and 2E which are presented to detect the time-dependent effect of ET-1 on ET-1 signaling molecules, including ERK1 /2, JNKs, p38, […] or STAT3 proteins, the differentiated 3T3-L1 adipocytes are treated with or without 100 nM ET-1 at different time points, such as 2, 5, 15, 30, 120, and 240 minutes. After ET-1 incubation, the total protein amounts and the phosphorylation levels of each ET-1 signaling molecule are determined by Western blotting analysis.
(§2) Referring to FIGS. 3A, 3B, and 3C which are presented to further study the endothelin receptor-dependent of ET-1 on the phosphorylation of downstream signaling molecules and on resistin mRNA expression, the differentiated 3T3-L1 adipocytes are pretreated with or without either 1 μM BQ610 (an ETAR inhibitor) or 1 μM BQ788 (an endothelin type B receptor (ETBR) inhibitor) for 1 hour, and then incubated with 100 nM ET-1. After different time points of ET-1 treatment, ET-1 signaling molecules, such as ERK1/2, JNKs, P38, AKT, and STAT3 proteins, and resistin mRNA levels are determined by Western blotting analysis and PCR analysis, respectively. FIG. 3A, 3B, and 3C are presented with or without 5, 15, and 120 minutes of 100 nM ET-1 treatments, respectively.
(§3) Referring to FIGS. 4A, 4B, 4C, 4D, and 4E which are presented to study the effect of the inhibitors of ET-1 signaling molecules, the differentiated 3T3-L1 adipocytes are pretreated with or without the specific inhibitors of ERK1/2, JNK, AKT, STAT3, or p38 for 30 minutes and then incubated with 100 nM ET-1. These inhibitors comprise 1,4-diamino-2,3-dicyano-1,4-bis [2-aminophenylthio]butadiene (U0126, 25 μM; an ERK1/2 inhibitor), 2-(2-Amino-3-methoxyphenyl)-4H-1-benzopyran-4-one (PD98059, 50 μM; an ERK1/2 inhibitor), anthrapyrazolone (SP600125, 20 μM; a JNK inhibitor), SB203580 (20 μM; a p38 inhibitor), 2-(4-morpholinyl)-8-phenyl-4H-1-benzopyran-4-one (LY294002, 50 μM; a PI3K/AKT inhibitor), wortmannin (0.2 μM; a PI3K/AKT inhibitor), and tyrphostin (AG490, 20 μM; a STAT3 inhibitor). After 5, 15 and 120 minutes of 100-nM ET-1 treatment, the total amounts and the phosphorylation level of the above ET-1 signaling molecules corresponding to the ET-1 stimulated increases in resistin mRNA level are determined by Western blotting analysis.

[2] = tested on: ERK1/2; test: ERK1/2 phosphorylation in differentiated 3T3-L1 adipocytes (Western blotting); type: cell-based; conditions: for basal level of phosphorylation of ERK1/2: inhibitor 1 μM alone, absence of ET-1
Procedure: as §1, §2, §3

[3] = tested on: STAT3; test: STAT3 phosphorylation in differentiated 3T3-L1 adipocytes (Western blotting); type: cell-based; conditions: for basal level of phosphorylation of STAT3: inhibitor 1 μM alone, absence of ET-1
Procedure: as §1, §2, §3

[4] = tested on: AKT; test: AKT phosphorylation in differentiated 3T3-L1 adipocytes (Western blotting); type: cell-based; conditions: for basal level of phosphorylation of AKT: inhibitor 1 μM alone, absence of ET-1
Procedure: as §1, §2, §3

[5] = tested on: resistin mRNA; test: resistin mRNA level in differentiated 3T3-L1 adipocytes (RT-PCR, real time-PCR); type: cell-based, mouse; conditions: for resistin mRNA level: pretreatment with inhibitor 1 μM alone, no ET-1
Procedure: Referring to FIGS. 1A and 1B which are presented to detect the time-dependent effect of ET-1 on resistin mRNA level, the differentiated 3T3-L1 adipocytes are treated with 100 nM ET-1 at different time periods, including 0, 0.25, 0.5, 1, 2, 4, 6, 8, 12, and 24 hours, After the treatment, resistin mRNA is analyzed by the respective method of reverse transcription-polymerase chain reaction (RT-PCR) (FIG. 1A) and real time-PCR. The forward and reverse primers are [NT] and [NT] for mouse GAP DH and [NT] and [NT] for mouse resistin, respectively. […] The duration of ET-1 incubation that causes the maximum effect on resistin mRNA levels is 2 hours. Referring to FIGS. 1C and 1D which are presented to detect the concentration-dependent effect of ET-1 on resistin mRNA level, the differentiated 3T3-L1 adipocytes are treated with different concentrations of ET-1, such as 0, 10, 50, and 100 nM. After 2 hours of ET-1 incubation, resistin mRNA levels are determined by RT-PCR (FIG. 1C) and by real time-PCR (FIG. 1D). Levels of resistin mRNA are increased by 50%, 100%, and 200% after 10, 50 and 100 nM ET-1 are respectively added. According to the results, 100 nM ET-1 is used in the following embodiments of the present invention for treatment of the differentiated 3T3-L1 adipocytes. […] After different time points of ET-1 treatment, ET-1 signaling molecules, such as ERK1/2, JNKs, P38, AKT, and STAT3 proteins, and resistin mRNA levels are determined by Western blotting analysis and PCR analysis, respectively.

[6] = tested on: p38; test: p38 phosphorylation in differentiated 3T3-L1 adipocytes (Western blotting); type: cell-based
Procedure: as §1
as §2, with “treatments, respectively. […]” for “treatments, respectively.”

[7] = tested on: resistin protein; test: resistin protein level in differentiated 3T3-L1 adipocytes (Western blotting); type: cell-based
Procedure: Referring to FIG. 4F which detects the concentration-dependent effect of ET-1 on resistin protein level, the differentiated 3T3-L1 adipocytes are treated with different concentrations of ET-1, such as 0, 10, 50, and 100 nM. After ET-1 incubation, resistin protein levels are determined by Western blotting analysis. Levels of resistin protein are increased by about 120%, 130%, and 140% after 10, 50 and 100 nM ET-1 are respectively added.

[8] = inhibitor 1 μM pretreated 1 hour, then 100 nM ET-1 for 5 or 15 minutes
[9] = inhibitor 1 μM, in the presence and absence of ET-1
[10] = inhibitor 50 μM pretreated 30 minutes, then 100 nM ET-1
[11] = inhibitor 20 μM pretreated 30 minutes, then 100 nM ET-1
[12] = 100 nM ET-1, time points 2-240 minutes
[13] = 100 nM ET-1 alone for 5 minutes or 15 minutes

In the case of `CC(C)C[C@H](NC(=O)N1CCCCCC1)C(=O)N[C@H](Cc1cn(C=O)c2ccccc12)C(=O)N[C@H](Cc1c[nH]c2ccccc12)C(=O)O` [BQ610], the “basal level of phosphorylation of JNKs” value [1] is reported as “does not alter”, the “ET-1-stimulated phosphorylation of JNKs” value [1] is reported as “inhibits” and the “basal level of phosphorylation of ERK1/2” value [2] is reported as “does not alter”. The “ET-1-stimulated phosphorylation of ERK1/2” value [2, 8] was “inhibits”, the “basal level of phosphorylation of STAT3” value [3] was “does not alter” and the “ET-1-stimulated phosphorylation of STAT3” value [3, 8] was “inhibits”. The “basal level of phosphorylation of AKT” value [4] was “does not alter”, the “ET-1-stimulated phosphorylation of AKT” value [4, 8] was “inhibits” and the “ET-1-stimulated resistin mRNA expression” value ([5]; inhibitor 1 μM pretreated 1 hour, then 100 nM ET-1 for 120 minutes) was “suppresses”. For the same molecule, the “resistin mRNA level” value [5] was “does not alter”.
With `CCCC[C@@H](NC(=O)[C@@H](Cc1cn(C(=O)OC)c2ccccc12)NC(=O)[C@H](CC(C)(C)C)NC(=O)N1[C@H](C)CCC[C@@H]1C)C(=O)O` [BQ788] the “basal level of phosphorylation of JNKs” value [1] was “does not alter”, the “ET-1-stimulated phosphorylation of JNKs” value [1] was “does not alter” and the “total amounts of JNKs protein” value [1, 9] was “does not alter”. The “basal level of phosphorylation of ERK1/2” value [2] was “does not alter”, the “ET-1-stimulated phosphorylation of ERK1/2” value [2, 8] was “does not alter” and the “total amounts of ERK1/2 protein” value [2, 9] was “does not alter”. The “basal level of phosphorylation of STAT3” value [3] was “does not alter”, the “ET-1-stimulated phosphorylation of STAT3” value [3, 8] was “does not alter” and the “total amounts of STAT3 protein” value [3, 9] was “does not alter”. The “basal level of phosphorylation of AKT” value [4] was “does not alter”, the “ET-1-stimulated phosphorylation of AKT” value [4, 8] was “does not alter” and the “total amounts of AKT protein” value [4, 9] was “does not alter”. The “resistin mRNA level” value [5] was “does not alter”.
In the case of `O=c1cc(N2CCOCC2)oc2c(-c3ccccc3)cccc12` [LY294002, 2-(4-morpholinyl)-8-phenyl-4H-1-benzopyran-4-one], the “ET-1-stimulated phosphorylation of AKT” value [4, 10] is reported as “inhibited”.
With `COc1cccc(-c2cc(=O)c3ccccc3o2)c1N` [PD98059, 2-(2-Amino-3-methoxyphenyl)-4H-1-benzopyran-4-one] the “ET-1-stimulated phosphorylation of ERK1/2” value [2, 10] was “inhibited”.
With `C[S+]([O-])c1ccc(-c2nc(-c3ccncc3)c(-c3ccc(F)cc3)[nH]2)cc1` (stereo not shown) [SB203580] the “phosphorylation of p38” value [6, 11] was “not stimulated by ET-1 or inhibited”.
In the case of `N#CC(=C(N)Sc1ccccc1N)C(C#N)=C(N)Sc1ccccc1N` [U0126, 1,4-diamino-2,3-dicyano-1,4-bis [2-aminophenylthio]butadiene], the “ET-1-stimulated phosphorylation of ERK1/2” value ([2]; inhibitor 25 μM pretreated 30 minutes, then 100 nM ET-1) is reported as “inhibited”.
For “ET-1: endothelin-1, one of the strongest vasoconstrictors; stimulus used on 3T3-L1 adipocytes”, the “time of maximum phosphorylation of JNKs” value [1, 12] was 15 min, the “phosphorylation of JNKs” value [1, 13] was “increased phosphorylation” and the “time of maximum phosphorylation of ERK1/2” value [2, 12] was 2 min. For the same molecule, the “phosphorylation of ERK1/2” value [2, 13] was “increased phosphorylation”, the “increase of resistin protein levels” value ([7]; 10 nM ET-1) was “about 120%” and the “increase of resistin protein levels” value ([7]; 50 nM ET-1) was ~130%. For the same molecule, the “increase of resistin protein levels” value ([7]; 100 nM ET-1) was ~140%, the “phosphorylation of STAT3” value [3, 13] was “increased phosphorylation” and the “phosphorylation of AKT” value [4, 13] was “increased phosphorylation”. For the same molecule, the “increase of resistin mRNA levels” value ([5]; 10 nM ET-1, 2 hours) was 50%, the “increase of resistin mRNA levels” value ([5]; 50 nM ET-1, 2 hours) was 100% and the “increase of resistin mRNA levels” value ([5]; 100 nM ET-1, 0.25-12 hours after treatment, differentiated 3T3-L1 adipocytes) was 100-250%. For the same molecule, the “increase of resistin mRNA levels” value ([5]; 100 nM ET-1, 2 hours) was 200%, the “duration of ET-1 incubation that causes the maximum effect on resistin mRNA levels” value ([5]; 100 nM ET-1, time course 0-24 hours) was 2 h and the “phosphorylation of p38 on ET-1 stimulation” value ([6]; 100 nM ET-1) was “not altered; also recorded: not stimulated”.
With tyrphostin [AG490] the “ET-1-stimulated phosphorylation of STAT3” value [3, 11] was “inhibited”.
